Patent US9169243B2, “Apoptosis signal-regulating kinase inhibitors” (Gilead Sciences, Inc., priority 2013, dated 2015)

Molecular target: recombinant human ASK1 kinase (Homo sapiens (Human), UniProt Q99683)
Test: TR-FRET ASK1 (Apoptosis Signal-Regulating Kinase 1) kinase assay
Format: biochemical
Details: TR-FRET/HTRF, 4 nM ASK1, 1 μM STK3 peptide substrate, 100 μM ATP, 3 hr; average of quadruplicate determination
Excerpt: I. TR-FRET ASK1 (Apoptosis Signal-Regulating Kinase 1) Kinase Assay
To evaluate the inhibitory activity of compounds of the invention against ASK1 (Apoptosis Signal-regulating Kinase 1) kinase, its activity was examined using a TR-FRET ASK1 kinase assay which determined the amount of phosphate transferred to a peptide substrate from ATP.
Dephosphorylated recombinant human ASK1 kinase was from Gilead Sciences. Small molecule kinase inhibitor staurosporine (Catalogue #S6942) and dithiothreitol (DTT, catalogue #43815-5G) were obtained from Sigma Chemicals (St. Louis, Mo.). ATP (catalogue #7724) was from Affymetrix (Santa Clara, Calif.) and test compounds were from Gilead Sciences. HTRF KinEASE™-STK S3 kit was obtained from Cisbio (Bedford, Mass.). All other reagents were of the highest grade commercially available.
The assay measures the phosphorylation level of a biotinylated peptide substrate by the ASK1 kinase using HTRF detection. This is a competitive, time-resolved fluorescence resonance energy transfer (TR-FRET) immunoassay, based on HTRF® KinEASE™-STK manual from Cisbio. Test compound, 1 μM STK3 peptide substrate, 4 nM of ASK1 kinase were incubated with 10 mM MOP buffer, pH. 7.0 containing 10 mM Mg-acetate, 0.025% NP-40, 1 mM DTT, 0.05% BSA and 1.5% glycerol for 30 minutes then 100 μM ATP was added to start the kinase reaction and incubated for 3 hr. Peptide antibody labeled with 1×Eu^3+ Cryptate buffer containing 10 mM EDTA and 125 nM Streptavidin XL665 were added to stop the reaction and phosphorylated peptide substrate was detected using Envision 2103 Multilabeled reader from PerkinElmer. The fluorescence was measured at 615 nm (Cryptate) and 665 nm (XL665) and a ratio of 665 nm/615 nm was calculated for each well. The resulting TR-FRET level (a ratio of 665 nm/615 nm) was proportional to the phosphorylation level. Under these assay conditions, the degree of phosphorylation of peptide substrate was linear with time and concentration for the enzyme. The assay system yielded consistent results with regard to Km and specific activities for the enzyme. For inhibition experiments (IC50 values), activities were performed with constant concentrations of ATP, peptide and several fixed concentrations of inhibitors. Staurosporine, the nonselective kinase inhibitor, was used as the positive control. All enzyme activity data are reported as an average of quadruplicate determination.
The IC50 values were calculated following equation: y=Range/{1+(x/IC50)^s}+Background where x and y represent the concentration of inhibitors and enzyme activity, respectively. Enzyme activity is expressed as the amount of Phosphate incorporated into substrate peptide from ATP. Range is the maximum y range (no inhibitor, DMSO control) and s is a slope factor.

recombinant human ASK1 kinase, sequence (Q99683 whole entry): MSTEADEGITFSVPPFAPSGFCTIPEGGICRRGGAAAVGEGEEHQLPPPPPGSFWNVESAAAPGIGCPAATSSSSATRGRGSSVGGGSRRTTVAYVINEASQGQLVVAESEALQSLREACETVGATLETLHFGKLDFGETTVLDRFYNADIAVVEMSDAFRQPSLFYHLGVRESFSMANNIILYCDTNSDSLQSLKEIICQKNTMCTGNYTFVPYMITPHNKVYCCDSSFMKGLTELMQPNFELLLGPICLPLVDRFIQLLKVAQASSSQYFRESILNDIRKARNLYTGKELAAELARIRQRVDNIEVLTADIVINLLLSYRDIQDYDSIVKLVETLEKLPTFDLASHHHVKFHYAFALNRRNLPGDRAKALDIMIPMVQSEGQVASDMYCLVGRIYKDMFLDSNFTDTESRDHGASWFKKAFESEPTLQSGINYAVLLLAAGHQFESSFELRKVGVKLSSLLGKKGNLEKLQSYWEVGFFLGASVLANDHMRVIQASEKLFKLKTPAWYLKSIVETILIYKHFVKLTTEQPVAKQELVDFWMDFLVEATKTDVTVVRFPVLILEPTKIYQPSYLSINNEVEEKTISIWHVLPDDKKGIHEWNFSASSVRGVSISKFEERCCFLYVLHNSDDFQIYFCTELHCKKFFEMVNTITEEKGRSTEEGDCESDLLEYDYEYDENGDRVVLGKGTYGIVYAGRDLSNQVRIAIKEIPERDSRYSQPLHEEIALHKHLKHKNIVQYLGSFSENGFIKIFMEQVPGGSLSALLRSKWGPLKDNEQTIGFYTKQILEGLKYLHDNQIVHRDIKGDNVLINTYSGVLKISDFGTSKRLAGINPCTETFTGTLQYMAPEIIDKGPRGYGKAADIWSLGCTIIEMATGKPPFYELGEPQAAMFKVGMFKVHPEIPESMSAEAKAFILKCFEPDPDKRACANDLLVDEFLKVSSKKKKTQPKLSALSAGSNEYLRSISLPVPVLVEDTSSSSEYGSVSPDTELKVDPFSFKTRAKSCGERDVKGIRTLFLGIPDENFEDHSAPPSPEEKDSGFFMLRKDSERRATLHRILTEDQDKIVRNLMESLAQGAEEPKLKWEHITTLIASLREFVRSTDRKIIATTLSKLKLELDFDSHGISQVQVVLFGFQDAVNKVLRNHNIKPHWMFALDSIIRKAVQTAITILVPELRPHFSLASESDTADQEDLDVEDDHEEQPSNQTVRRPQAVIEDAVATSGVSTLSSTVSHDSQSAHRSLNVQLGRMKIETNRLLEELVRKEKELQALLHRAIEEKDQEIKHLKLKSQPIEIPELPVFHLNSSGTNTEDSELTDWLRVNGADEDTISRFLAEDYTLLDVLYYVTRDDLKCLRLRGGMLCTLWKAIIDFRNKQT

Structure (SMILES): O=C(Nc1csc(-c2nncn2C2CC2)n1)c1cc(-n2cnc(C3CC3)c2)c(N2CC(C(F)F)C2)cn1 [Compound 1, 4-(4-cyclopropylimidazol-1-yl)-N-[2-(4-cyclopropyl-1,2,4-triazol-3-yl)-1,3-thiazol-4-yl]-5-[3-(difluoromethyl)azetidin-1-yl]pyridine-2-carboxamide]
- IC50: 2.2 nM

Structure (SMILES): N#CC1CN(c2cnc(C(=O)Nc3csc(-c4nncn4C4CC4)n3)cc2-n2cnc(C3CC3)c2)C1 [Compound 2, 5-(3-cyanoazetidin-1-yl)-4-(4-cyclopropylimidazol-1-yl)-N-[2-(4-cyclopropyl-1,2,4-triazol-3-yl)-1,3-thiazol-4-yl]pyridine-2-carboxamide]
- IC50: 0.9 nM

Structure (SMILES): CC1(C#N)CN(c2cnc(C(=O)Nc3csc(-c4nncn4C4CC4)n3)cc2-n2cnc(C3CC3)c2)C1 [Compound 3, 5-(3-cyano-3-methylazetidin-1-yl)-4-(4-cyclopropyiimidazol-1-yl)-N-[2-(4-cyclopropyl-1,2,4-triazol-3-yl)-1,3-thiazol-4-yl]pyridine-2-carboxamide]
- IC50: 1.9 nM

Structure (SMILES): COC1(C)CN(c2cnc(C(=O)Nc3csc(-c4nncn4C4CC4)n3)cc2-n2cnc(C3CC3)c2)C1 [Compound 4, 4-(4-cyclopropylimidazol-1-yl)-N-[2-(4-cyclopropyl-1,2,4-triazol-3-yl)-1,3-thiazol-4-yl]-5-(3-methoxy-3-methylazetidin-1-yl)pyridine-2-carboxamide]
- IC50: 1.8 nM

Structure (SMILES): O=C(Nc1csc(-c2nncn2C2CC2)n1)c1cc(-n2cnc(C3CC3)c2)c(N2CC(F)(F)C2)cn1 [Compound 5, 4-(4-cyclopropylimidazol-1-yl)-N-[2-(4-cyclopropyl-1,2,4-triazol-3-yl)-1,3-thiazol-4-yl]-5-(3,3-difluoroazetidin-1-yl)pyridine-2-carboxamide]
- IC50: 2.8 nM

Structure (SMILES): COC1CCN(c2cnc(C(=O)Nc3csc(-c4nncn4C4CC4)n3)cc2-n2cnc(C3CC3)c2)C1 (stereo not shown) [Compound 6, 4-(4-cyclopropylimidazol-1-yl)-N-[2-(4-cyclopropyl-1,2,4-triazol-3-yl)-1,3-thiazol-4-yl]-5-(3-methoxypyrrolidin-1-yl)pyridine-2-carboxamide]
- IC50: 2.8 nM

Structure (SMILES): O=C(Nc1csc(-c2nncn2C2CC2)n1)c1cc(-n2cnc(C3CC3)c2)c(N2CCC(C(F)(F)F)CC2)cn1 [Compound 7, 4-(4-cyclopropylimidazol-1-yl)-N-[2-(4-cyclopropyl-1,2,4-triazol-3-yl)-1,3-thiazol-4-yl]-5-[4-(trifluoromethyl)piperidin-1-yl]pyridine-2-carboxamide]
- IC50: 3.2 nM

Structure (SMILES): O=C(Nc1csc(-c2nncn2C2CC2)n1)c1cc(-n2cnc(C3CC3)c2)c(N2CCC(F)CC2)cn1 [Compound 8, 4-(4-cyclopropylimidazol-1-yl)-N-[2-(4-cyclopropyl-1,2,4-triazol-3-yl)-1,3-thiazol-4-yl]-5-(4-fluoropiperidin-1-yl)pyridine-2-carboxamide]
- IC50: 2.5 nM

Structure (SMILES): N#CC1CCN(c2cnc(C(=O)Nc3csc(-c4nncn4C4CC4)n3)cc2-n2cnc(C3CC3)c2)CC1 [Compound 9, 5-(4-cyanopiperidin-1-yl)-4-(4-cyclopropylimidazol-1-yl)-N-[2-(4-cyclopropyl-1,2,4-triazol-3-yl)-1,3-thiazol-4-yl]pyridine-2-carboxamide]
- IC50: 2.2 nM

Structure (SMILES): COC1CCN(c2cnc(C(=O)Nc3csc(-c4nncn4C4CC4)n3)cc2-n2cnc(C3CC3)c2)CC1 [Compound 10, 4-(4-cyclopropylimidazol-1-yl)-N-[2-(4-cyclopropyl-1,2,4-triazol-3-yl)-1,3-thiazol-4-yl]-5-(4-methoxypiperidin-1-yl)pyridine-2-carboxamide]
- IC50: 3.2 nM

Structure (SMILES): CNC(=O)C1CCN(c2cnc(C(=O)Nc3csc(-c4nncn4C4CC4)n3)cc2-n2cnc(C3CC3)c2)CC1 [Compound 11, 4-(4-cyclopropylimidazol-1-yl)-N-[2-(4-cyclopropyl-1,2,4-triazol-3-yl)-1,3-thiazol-4-yl]-5-[4-(methylcarbamoyl)piperidin-1-yl]pyridine-2-carboxamide]
- IC50: 0.4 nM

Structure (SMILES): COC1(C)CCN(c2cnc(C(=O)Nc3csc(-c4nncn4C4CC4)n3)cc2-n2cnc(C3CC3)c2)CC1 [Compound 12, 4-(4-cyclopropylimidazol-1-yl)-N-[2-(4-cyclopropyl-1,2,4-triazol-3-yl)-1,3-thiazol-4-yl]-5-(4-methoxy-4-methylpiperidin-1-yI)pyridine-2-carboxamide]
- IC50: 14.2 nM

Structure (SMILES): O=C(Nc1csc(-c2nncn2C2CC2)n1)c1cc(-n2cnc(C3CC3)c2)c(N2CCN(CC(F)(F)F)CC2)cn1 [Compound 13, 4-(4-cyclopropylimidazol-1-yl)-N-[2-(4-cyclopropyl-1,2,4-triazol-3-yl)-1,3-thiazol-4-yl]-5-[4-(2,2,2-trifluoroethyl)piperazin-1-yl]pyridine-2-carboxamide]
- IC50: 2.9 nM

Structure (SMILES): O=C(Nc1csc(-c2nncn2C2CC2)n1)c1cc(-n2cnc(C3CC3)c2)c(N2CCCOCC2)cn1 [Compound 14, 4-(4-cyclopropylimidazol-1-yl)-N-[2-(4-cyclopropyl-1,2,4-triazol-3-yl)-1,3-thiazol-4-yl]-5-(1,4-oxazepan-4-yl)pyridine-2-carboxamide]
- IC50: 3.8 nM

Structure (SMILES): O=C(Nc1csc(-c2nncn2C2CC2)n1)c1cc(-n2cnc(C3CC3)c2)c(N2CCN3C(=O)OCC3C2)cn1 (stereo not shown) [Compound 16, 4-(4-cyclopropylimidazol-1-yl)-N-[2-(4-cyclopropyl-l,2,4-triazol-3-yl)-1,3-thiazol-4-yl]-5-(3-oxo-5,6,8,8a-tetrahydro-1H-[1,3]oxazolo[3,4-a]pyrazin-7-yl)pyridine-2-carboxamide]
- IC50: 2.7 nM

Structure (SMILES): O=C(Nc1csc(-c2nncn2C2CC2)n1)c1cc(-n2cnc(C3CC3)c2)c(N2CC3CC3C2)cn1 (stereo not shown) [Compound 17, 5-(3-azabicyclo[3.1.0]hexan-3-yl)-4-(4-cyclopropylimidazol-1-yl)-N-[2-(4-cyclopropyl-1,2,4-triazol-3-yl)-3,3-thiazol-4-yl]pyridine-2-carboxamide]
- IC50: 1.1 nM

Structure (SMILES): O=C(Nc1csc(-c2nncn2C2CC2)n1)c1cc(-n2cnc(C3CC3)c2)c(N2CC(N3CCOCC3)C2)cn1 [Compound 18, 4-(4-cyclopropylimidazol-1-yl)-N-[2-(4-cyclopropyl-1,2,4-triazol-3-yl)-1,3-thiazol-4-yl]-5-(3-morpholin-4-ylazetidin-1-yl)pyridine-2-carboxamide]
- IC50: 2.3 nM

Structure (SMILES): O=C(Nc1csc(-c2nncn2C2CC2)n1)c1cc(-n2cnc(C3CC3)c2)c(N2CCN(C3CC3)CC2)cn1 [Compound 19, 4-(4-cyclopropylimidazol-1-yl)-5-(4-cyclopropylpiperazin-1-yl)-N-[2-(4-cyclopropyl-1,2,4-triazol-3-yl)-1,3-thiazol-4-yl]pyridine-2-carboxamide]
- IC50: 2.8 nM

Structure (SMILES): O=C(Nc1csc(-c2nncn2C2CC2)n1)c1cc(-n2cnc(C3CC3)c2)c(N2CCN(CC3CC3)CC2)cn1 [Compound 20, 4-(4-cyclopropylimidazol-1-yl)-5-[4-(cyclopropylmethyl)piperazin-1-yl]-N-[2-(4-cyclopropyl-1,2,4-triazol-3-yl)-1,3-thiazol-4-yl]pyridine-2-carboxamide]
- IC50: 2.5 nM

Structure (SMILES): O=C(Nc1csc(-c2nncn2C2CC2)n1)c1cc(-n2cnc(C3CC3)c2)c(N2CCC3(CC2)COC3)cn1 [Compound 21, 4-(4-cyclopropylimidazol-1-yl)-N-[2-(4-cyclopropyl-1,2,4-triazol-3-yl)-1,3-thiazol-4-yl]-5-(2-oxa-7-azaspiro[3.5]nonan-7-y!)pyridine-2-carboxamide]
- IC50: 1.9 nM

Structure (SMILES): O=C(Nc1csc(-c2nncn2C2CC2)n1)c1cc(-n2cnc(C3CC3)c2)c(N2CC3(CCOCC3)C2)cn1 [Compound 22, 4-(4-cyclopropylimidazol-1-yl)-N-[2-(4-cyclopropyl-1,2,4-triazol-3-yl)-1,3-thiazol-4-yl]-5-(7-oxa-2-azaspiro[3.5]nonan-2-yl)pyridine-2-carboxamide]
- IC50: 4.5 nM

Structure (SMILES): COCC1CN(c2cnc(C(=O)Nc3csc(-c4nncn4[C@@H](C)C(F)(F)F)n3)cc2-n2cnc(C3CC3)c2)C1 [Compound 23, (S)-4-(4-cyclopropyl-1H-imidazol-1-yl)-5-(3-(methoxymethyl)azetidin-1-yl)-N-(2-(4-(1,1,1-trifluoropropan-2-yl)-4H-1,2,4-triazol-3-yl)thiazol-4-yl)picolinamide]
- IC50: 2 nM
